For orientation: inhibition means the drop in the measured response relative to a control, in per cent. By IC50 is commonly meant the concentration that inhibits the measured activity by half.

For one assay, the system named is MOLT-4. Briefly: Growth inhibition of human MOLT4 cells at 10 uM after 48 hrs by sulforhodamine B assay relative to control. It counts as functional. Conditions: MOLT-4, 48 h, read-out: GI. On the technique in general: The SRB assay estimates cell density from bound dye.
The target of assay [1] is T1, Protein farnesyltransferase (Homo sapiens, UniProt P49354+P49356). Briefly: Inhibition of partially purified human recombinant FTase at 100 uM measured for 15 mins by automated fluorescence based assay relative to control. Type of assay: protein-complex assay.
A further assay concerns CCRF-CEM. Nature of the assay: Growth inhibition of human CCRF-CEM cells at 10 uM after 48 hrs by sulforhodamine B assay relative to control. Conditions: read-out: GI. It counts as functional.
For a further assay, the system named is HL-60(TB). Briefly: Growth inhibition of human HL-60(TB) cells at 10 uM after 48 hrs by sulforhodamine B assay relative to control. The following applies: HL-60, 48 h, read-out: GI. It counts as functional.
In a further assay the test system is RPMI-8226. Briefly: Growth inhibition of human RPMI8226 cells at 10 uM after 48 hrs by sulforhodamine B assay relative to control. It counts as functional. Conditions: RPMI-8226, 48 h, read-out: GI.
Another assay concerns SNB-75. Nature of the assay: Growth inhibition of human SNB75 cells at 10 uM after 48 hrs by sulforhodamine B assay relative to control. The following applies: SNB-75, 48 h, read-out: GI. Type of assay: functional.
A further assay has as its system HCT-15. Nature of the assay: Growth inhibition of human HCT15 cells at 10 uM after 48 hrs by sulforhodamine B assay relative to control. Type of assay: functional. The following applies: for inhibition of growth at 10 µM: HCT-15, 48 h, read-out: GI.
In the next assay the test system is EKVX. Briefly: Growth inhibition of human EKVX cells at 10 uM after 48 hrs by sulforhodamine B assay relative to control. Type of assay: functional. Conditions: for inhibition of growth at 10 µM: read-out: GI.
The next assay relates to LOX IMVI. Briefly: Growth inhibition of human LOXIMVI cells at 10 uM after 48 hrs by sulforhodamine B assay relative to control. Type of assay: functional. Conditions: for inhibition of growth at 10 µM: read-out: GI.
A further assay deals with SK-MEL-5. Briefly: Growth inhibition of human SK-MEL-5 cells at 10 uM after 48 hrs by sulforhodamine B assay relative to control. Type of assay: functional. Conditions: SK-MEL-5, 48 h, read-out: GI.
For the next assay, the system named is UACC-62. Briefly: Growth inhibition of human UACC62 cells at 10 uM after 48 hrs by sulforhodamine B assay relative to control. It counts as functional. The following applies: UACC-62, 48 h, read-out: GI.
The next assay deals with OVCAR-8. Nature of the assay: Growth inhibition of human OVCAR8 cells at 10 uM after 48 hrs by sulforhodamine B assay relative to control. It counts as functional. Conditions: for inhibition of growth at 10 µM: OVCAR-8, 48 h, read-out: GI.
For the next assay, the system named is UO-31. Briefly: Growth inhibition of human UO31 cells at 10 uM after 48 hrs by sulforhodamine B assay relative to control. It counts as functional. Conditions: UO-31, 48 h, read-out: GI.
The next assay concerns CAKI-1. Briefly: Growth inhibition of human Caki1 cells at 10 uM after 48 hrs by sulforhodamine B assay relative to control. Type of assay: functional. The following applies: CAKI-1, 48 h, read-out: GI.
Another assay concerns PC-3. Briefly: Growth inhibition of human PC3 cells at 10 uM after 48 hrs by sulforhodamine B assay relative to control. Type of assay: functional. The following applies: PC-3, 48 h, read-out: GI.
The test system of a further assay is MDA-MB-231. Nature of the assay: Growth inhibition of human MDA-MB-231 cells at 10 uM after 48 hrs by sulforhodamine B assay relative to control. Type of assay: functional. Conditions: MDA-MB-231, 48 h, read-out: GI.
The next assay relates to T47D. Briefly: Growth inhibition of human T47D cells at 10 uM after 48 hrs by sulforhodamine B assay relative to control. Conditions: read-out: GI. It counts as functional.
Assay [2] concerns the target T1, Protein farnesyltransferase. Briefly: Inhibition of partially purified human recombinant FTase measured for 15 mins by automated fluorescence based assay. It counts as protein-complex assay.

Calls of active or inactive are those of the source. The rule behind the calls is not given here.

For `O=C(CCN1c2ccccc2Sc2ccccc21)NCc1cn(CC(=O)c2ccc(F)cc2)nn1`, the inhibition of growth at 10 µM with MOLT-4 is 38%; in the assay on CCRF-CEM, 20%; with HL-60(TB) it was 20%; with RPMI-8226, 3%; in the assay with SNB-75, 19%; in the assay with EKVX, 22%. For the same compound, the inhibition of growth at 10 µM with LOX IMVI was 12%; in the assay with SK-MEL-5, 14%; in the assay on UACC-62, 14%; in the assay with UO-31, 18%; with CAKI-1 it was 17%; with PC-3, 26%. Moreover, the inhibition of growth at 10 µM in the assay with MDA-MB-231 was 3%; in the assay with T47D, 7%. Further, the inhibition in assay [1] came to 52.6%. Besides, the “growth inhibition (GI)” value in the assay on HCT-15 and in the assay on OVCAR-8 was “inactive” each time.
On to `O=C(CN1c2ccccc2Sc2ccccc21)NCc1cn(CC(=O)c2ccc(Br)cc2)nn1`, for which the IC50 in [2] turned out to be 24.3 µM. Further, the inhibition of growth at 10 µM worked out at 42% in the assay with MOLT-4; 17% with CCRF-CEM; 13% with HL-60(TB); 22% with RPMI-8226; 18% in the assay on SNB-75; 16% in the assay on HCT-15. The inhibition of growth at 10 µM in the assay on SK-MEL-5 is 5%; with UACC-62 it was 25%; with OVCAR-8, 6%; in the assay on UO-31, 13%; in the assay on CAKI-1, 13%; in the assay on MDA-MB-231, 9%. Besides, the inhibition of growth at 10 µM in the assay with T47D was determined as 12%. For the same compound, the “growth inhibition (GI)” value in the assay with EKVX and in the assay with LOX IMVI was “inactive” throughout.
Turning to `Cc1ccc(C(=O)Cn2cc(CNC(=O)CCN3c4ccccc4Sc4ccccc43)nn2)cc1`, the inhibition in assay [1] was 44.2%.
Turning to `O=C(CN1c2ccccc2Sc2ccccc21)NCc1cn(CC(=O)c2ccc(Cl)cc2)nn1`, the inhibition in [1] stood at 40%.
With `N#Cc1ccc(C(=O)Cn2cc(CNC(=O)CCN3c4ccccc4Sc4ccccc43)nn2)cc1`, the concentration for half-maximal inhibition (IC50) in assay [2] was 5.2 µM.
As for `O=C(CN1c2ccccc2Sc2ccccc21)OCc1cn(CC(=O)c2ccc(Br)cc2)nn1`, the inhibition in assay [1] worked out at 35.5%.
Turning to `N#Cc1ccc(C(=O)Cn2cc(COC(=O)CCN3c4ccccc4Sc4ccccc43)nn2)cc1`, the inhibition in assay [1] was 55.1%.
For `O=C(CCN1c2ccccc2Sc2ccccc21)OCc1cn(CC(=O)c2ccc(Cl)cc2)nn1`, the half-inhibitory concentration (IC50) in assay [2] was 1.5 µM.
`O=C(CN1c2ccccc2Sc2ccccc21)NCc1cn(CC(=O)N2c3ccccc3Sc3ccccc32)nn1`: the inhibition in assay [1] was 0%.
The same measure, in the same setting: then `O=C(CN1c2ccccc2Sc2ccccc21)OCc1cn(CC(=O)c2ccc(F)cc2)nn1`, with 31.9%.
On the same count and under the same terms, then `O=C(CN1c2ccccc2Sc2ccccc21)NCc1cn(CC(=O)N2c3ccccc3Sc3ccc(Cl)cc32)nn1`, with 0%.
As for `O=C(CCN1c2ccccc2Sc2ccccc21)OCc1cn(CC(=O)c2ccc(F)cc2)nn1`, the inhibition in [1] came to 35.2%.
Turning to `O=C(CCN1c2ccccc2Sc2ccccc21)NCc1cn(CC(=O)c2ccc(Br)cc2)nn1`, the IC50 in [2] is 8.3 µM. In addition, the inhibition of growth at 10 µM was determined as 34% in the assay on MOLT-4; 18% in the assay on CCRF-CEM; 41% with HL-60(TB); 15% in the assay on RPMI-8226; 18% in the assay on SNB-75; 7% with HCT-15. The inhibition of growth at 10 µM in the assay with EKVX is 24%; with LOX IMVI, 17%; with SK-MEL-5, 24%; in the assay on UACC-62, 29%; in the assay on UO-31, 42%; in the assay with CAKI-1, 37%. Further, the figures for the inhibition of growth at 10 µM in the assay on PC-3, in the assay on MDA-MB-231 and in the assay with T47D were 42%, 14% and 29%, respectively. The “growth inhibition (GI)” value with OVCAR-8 was “inactive”.
Turning to `Cc1ccc(C(=O)Cn2cc(CNC(=O)CN3c4ccccc4Sc4ccccc43)nn2)cc1`, the inhibition in [1] was 19%.
Same read-out and setting: then `COc1ccc(C(=O)Cn2cc(COC(=O)CCN3c4ccccc4Sc4ccccc43)nn2)cc1`, with 22.3%; and `COc1ccc(C(=O)Cn2cc(CNC(=O)CN3c4ccccc4Sc4ccccc43)nn2)cc1`, with 24.4%; and `N#Cc1ccc(C(=O)Cn2cc(CNC(=O)CN3c4ccccc4Sc4ccccc43)nn2)cc1`, with 24.9%.
As for `Cc1ccc(C(=O)Cn2cc(COC(=O)CCN3c4ccccc4Sc4ccccc43)nn2)cc1`, the inhibition in assay [1] is 10.7%.
The same measure, in the same setting: under `N#Cc1ccc(C(=O)Cn2cc(COC(=O)CN3c4ccccc4Sc4ccccc43)nn2)cc1` stands 20.7%.
Take `O=C(CCN1c2ccccc2Sc2ccccc21)OCc1cn(CC(=O)c2ccc(Br)cc2)nn1`: the IC50 in assay [2] came to 1.3 µM.
On to `O=C(CCN1c2ccccc2Sc2ccccc21)NCc1cn(CC(=O)c2ccc(Cl)cc2)nn1`, for which, in assay [2], the IC50 was found to be 7.7 µM. Besides, the inhibition of growth at 10 µM was 40% in the assay on MOLT-4; 19% with CCRF-CEM; 68% in the assay on HL-60(TB); 19% in the assay on RPMI-8226; 20% in the assay with SNB-75; 8% with HCT-15. Also, the inhibition of growth at 10 µM with EKVX was found to be 30%; in the assay on LOX IMVI, 9%; in the assay on SK-MEL-5 it was 13%; with UACC-62 it was 26%; in the assay with OVCAR-8, 17%; in the assay with UO-31 it was 36%. In addition, the inhibition of growth at 10 µM came out at 32% in the assay with CAKI-1, 38% in the assay with PC-3, 4% with MDA-MB-231 and 22% in the assay with T47D.
Regarding `COc1ccc(C(=O)Cn2cc(CNC(=O)CCN3c4ccccc4Sc4ccccc43)nn2)cc1`, the inhibition in assay [1] amounted to 29.3%.
Same read-out and setting: then `O=C(CCN1c2ccccc2Sc2ccccc21)NCc1cn(CC(=O)N2c3ccccc3Sc3ccccc32)nn1`, with 0%; and `O=C(CN1c2ccccc2Sc2ccccc21)NCc1cn(CC(=O)c2ccc(F)cc2)nn1`, with 0%.

The record behind these values is ChEMBL document CHEMBL2046334, “New farnesyltransferase inhibitors in the phenothiazine series” (Bioorg Med Chem Lett, 2012).
